US20160363584A1, “SYSTEMS AND METHODS FOR STUDYING INFLAMMATION-DRUG INTERACTIONS” (Hepregen Corporation, priority 2012, published 2016)
Where two headings read alike, the source gives them in different places.

Assays:
[1] = tested on: human Kupffer-HepatoPac™ cultures; type: cell-based
Method: Cryopreserved human hepatocytes, cryopreserved human Kupffer cells and 3T3 J2 mouse fibroblasts were used in the manufacturing of the co-culture platform. Cryopreserved hepatocyte vials were thawed in a 37° C. water bath for 90-120 seconds followed by dilution in 50 mL of pre-warmed percoll-based hepatocyte density sedimentation medium (p=1.06). The cell suspension was spun at 50×g for 5 minutes. The supernatant was discarded, cells were resuspended in hepatocyte culture media (HCM) (Hepregen Corporation, Medford, Mass.) and viability was assessed using trypan blue exclusion (typically 80-95%). Liver-derived non-parenchymal cells, as judged by their size (˜10 μm in diameter) and morphology (non-polygonal), were consistently found to be less than 1% in these preparations. […] Kupffer cells were gently rocked into suspension and evaluated for viability via Trypan Blue exclusion. […]
Cytotoxicity was assessed by evaluation of cellular ATP content while hepatocyte metabolic competence was assessed by urea production. […] The reaction is based on the acid catalyzed condensation of urea with diacetylmonoxime in the presence of thiosemicarbazide to yield a red purple chromogen that is read spectrophotometrically. The cellular ATP content was measured in cell lysates using the Cell Titer-Glo luminescent kit from Promega (Madison, Wis.). […]

mouse = conditions: cited from earlier work; for Effect on TVX/LPS toxic response: in vivo mouse model, Shaw et al.
[2] = tested on: human Kupffer cell-treated HepatoPac™ model; assay: Chronic toxicity platform, nine day treatment, cellular ATP content; type: cell-based; conditions: for Toxicity in the presence of LPS-stimulated Kupffer cells: 50 ng/ml LPS; for Toxicity following nine days of compound dosing: all treatment conditions (HepatoPac or Kupffer cell-treated, +/- LPS)
Method: Chronic toxicity of various compounds suspected to be immunoreactive was evaluated with the human Kupffer cell-treated HepatoPac™ model (hepatocyte:Kupffer cell ratio of 1:0.4). Following a nine day treatment, compound toxicity was assessed as a function of cellular ATP content. TVX was used as a positive control. […] On day 7, cryopreserved unmatched Kupffer cells were added to the cultures. The cultures were dosed with compounds on culture Day 8 (hereby referred to as Dosing Day 0). On Dosing Day 1, LPS was added to the culture media at a final concentration of 50 ng/ml. On Dosing Day 3, 10 μl of supernatant was removed from cultures for urea analysis and replaced with an additional dose of the test compound. Similarly, supernatant was collected and cultures were re-dosed on Dosing Days 5 and 7. On Dosing Day 9, supernatant was collected and the cellular ATP content of the cultures was assessed (Promega Cell Titer Glo). Urea secretion of hepatocytes was quantified for the time-points of Dosing Day […], 5, 7, and 9 (data not shown).

[3] = tested on: Human HepatoMune™ co-cultures; assay: cells
Method: Hepatocytes were seeded on micropatterned collagen plates on Day 0. On Day 1, 3T3 fibroblasts were added to the cultures. Human HepatoPac® co-cultures were allowed to stabilize functionally for 7 days in serum-supplemented medium. Human Kupffer cells (from unmatched donors) were seeded onto the hepatocyte cocultures on Day 7 of culture at a hepatocyte to Kupffer cell ratio of 10:4. […] Cell lysates from each treatment group were collected on days 11 and 14 of culture for assessment of drug-induced effects on cytotoxicity.

[4] = tested on: rat Kupffer-HepatoPac™ cultures; type: cell-based
Method: Cytotoxicity was assessed by evaluation of cellular ATP content while hepatocyte metabolic competence was assessed by urea production. Production of urea, a liver-specific function, was assayed in culture media using the Stanbio kit according to manufacturer's directions. The reaction is based on the acid catalyzed condensation of urea with diacetylmonoxime in the presence of thiosemicarbazide to yield a red purple chromogen that is read spectrophotometrically. The cellular ATP content was measured in cell lysates using the Cell Titer-Glo luminescent kit from Promega (Madison, Wis.).
HepatoPac™ co-cultures were first allowed to stabilize functionally in serum-supplemented media for a 7-day period. Species-matched Kupffer cells were added to human and rat HepatoPac™ at multiple ratios (to mimic both the normal and inflamed state of the liver). To mimic the physiological state, human and rate Kupffer cells were added at hepatocyte:Kupffer cell ratios of 1:0.1 and 1:0.2, respectively. To mimic the inflamed state human Kupffer cells (at a ratio of 1:0.4 hepatocytes:Kupffer cells) or rat Kupffer cells (at a ratio of 1:0.5 hepatocytes:Kupffer cells) were then added to the cultures. On day 8 of culture, the cultures were treated with increasing concentrations of either Trovafloxacin or Levofloxacin (0-400 μM) in serum-free media. 24 hrs later, the cultures were stimulated with 50 ng/mL LPS. […]

TNF-α = TNF-α secretion in TVX/LPS-treated rat cultures with pentoxifylline; type: cell-based; conditions: 5 mM pentoxifylline
Method: Cultures were treated with Trovafloxacin and 5 mM Pentoxifylline for 72 hours. After 24 hours of dosing, Kupffer cells were activated with 50 ng/ml of LPS.

[5] = tested on: HepatoPac™-Kupffer cell co-cultures; assay: IL-6 secretion after cytokine exposure of HepatoPac-Kupffer cell co-cultures; type: cell-based, human; conditions: 2 or 4 day treatment
Method: (§1) Cultures received 2 or 4 day treatment with IL-2, IL-1B, TNF-α, or IL-6 in serum-free media after which cytokine levels were assayed in their supernatants, Cyp3A4 activity was determined using the P450-Glo Assay (Promega), total ATP was measured (Promega Cell-Titer Glo) and RNA was extracted (Qiagen Rneasy).
Cultures were exposed to IL-2, IL-1B and TNF-α and secretion of IL-6 into the culture supernatant was measured.

Method for CYP3A4: as §1
Standard human HepatoPac™ and Kupffer cell-treated HepatoPac™ (hepatocyte:Kupffer cell ratio of 1:0.4) cultures were treated with the inflammatory cytokine IL-1B for 4 days. Sensitivity to IL-1B was measured as a function of Cyp3A4 activity repression. Following 4 days of IL-1B treatment, cytokines were removed and cultures were allowed to recover for 6 days.

N[C@@H]1[C@H]2CN(c3nc4c(cc3F)c(=O)c(C(=O)O)cn4-c3ccc(F)cc3F)C[C@@H]12 [TVX, trovafloxacin]
TVX toxicity on addition of TNF-α [1]: potentiates TVX toxicity
Toxicity under LPS-induced inflammatory stress (mouse; mouse, in vivo): toxic
Toxicity in the presence of LPS-stimulated Kupffer cells ([2]; 9-day treatment): increased toxicity
Toxicity following nine days of compound dosing [2]: toxicity in all treatment conditions was observed

CN(C)CCCN1c2ccccc2Sc2ccc(Cl)cc21 [chlorpromazine]
IC50 ([3]; read-out: IC50 (concentration at which 50% of the cells are dead), absence of LPS): 29 µM
IC50 ([3]; read-out: IC50 (concentration at which 50% of the cells are dead), presence of 50 ng/ml LPS): 17 µM

O=C(O)Cc1ccccc1Nc1c(Cl)cccc1Cl [diclofenac]
LPS-mediated toxicity after 3-day treatment ([2]; 3-day treatment (data not shown)): did not result in increased LPS-mediated toxicity
Toxicity in the presence of LPS-stimulated Kupffer cells ([2]; 9-day treatment): increased toxicity

CC(=O)N1CCN(c2ccc(OCC3COC(Cn4ccnc4)(c4ccc(Cl)cc4Cl)O3)cc2)CC1 (stereo not drawn) [ketoconazole]
Difference in TC50 between treatment groups ([2]; 9-day treatment): no significant difference
Toxicity following nine days of compound dosing [2]: toxicity in all treatment conditions was observed

C[C@H]1COc2c(N3CCN(C)CC3)c(F)cc3c(=O)c(C(=O)O)cn1c23 [levofloxacin]
Toxicity (cellular ATP content) [4]: not toxic

CC(=O)CCCCn1c(=O)c2c(ncn2C)n(C)c1=O [pentoxifylline]
Effect on TVX/LPS-induced HepatoPac toxicity ([4]; 5 mM pentoxifylline, 72 hours, 50 ng/ml LPS after 24 hours): significantly decreased
Effect on TVX/LPS toxic response (mouse): toxicity abrogation
Effect on TNF-α secretion (TNF-α): significantly decreased

IL-1B: inflammatory cytokine
IL-6 secretion into the culture supernatant [5]: causes IL-6 release
CYP3A4 expression (CYP3A4): Repression of CYP3A4 expression
Cyp3A4 activity (CYP3A4): dose-dependent and Kupffer cell-enhanced repression
Time Cyp3A4 activity remained repressed after removal of IL-1B (CYP3A4; human, 96 h): 4 days

IL-6: cytokine
Cyp3A4 activity (CYP3A4): maintains repression

TNF-α
IL-6 secretion into the culture supernatant [5]: no effect

etanercept
Effect on TVX/LPS toxic response (mouse): toxicity abrogation
